# Test system: GluR6 glutamate receptor
# Test: Whole-cell current recording with cell-flow method, HEK 293 cells expressing GluR6
# Type: cell-based
# Conditions: 1 mM DECM, −60 mV, pH 7.4, 22° C.
# From the text: In whole-cell current recording experiments with DECM-caged glutamate, HEK 293 cells stably transfected with cDNA encoding the GluR6 were used. In whole-cell current recording experiments with DECM-caged glycine, HEK 293 cells were transiently transfected with the cDNA of the α1-subunit of the human glycine receptor by using the Polyfect™ transfection reagent (Qiagen GmbH, D-40724, Hilden, Germany). The cDNA of the α1-subunit was kindly provided by Professor H. Betz (Max-Plank-Institute for brain Research, Frankfurt, Germany). The cells were co-transfected with cDNA encoding the green fluorescent protein (pGreen Lantern plasmid, Life Technologies, Gaitherberg, Md.) to detect transfected cells (Chalfie et al., “Green Fluorescent Protein as a Marker for Gene Expression,” Science 263:802-805 (1994), which is hereby incorporated by reference in its entirety).
# The cells were used for electrophysiological experiments between 24 and 72 h after each passage. Whole-cell currents evoked by glutamate or glycine (100 μM) were recorded using the whole-cell configuration (Hamill et al., “Improved Patch-Clamp Techniques for High-Resolution Current Recording From Cells and Cell-Free Membrane Patches,” Pfluegers Arch 391:85-100 (1981), which is hereby incorporated by reference in its entirety) at room temperature, −60 mV, and pH 7.4. The experiments using DECM-caged glutamate were carried out in the absence or presence of 2 mM DECM-caged glutamate (FIG. 5A) or 1 mM 7-N,N-diethylamino-4-hydroxymethylcoumarin (2) (FIG. 5B). Alternatively, the experiments using DECM-caged glycine were carried out in the absence or presence of 1 mM DECM-caged-glycine (FIG. 10). The solution in the recording pipet contained 120 mM CsCl, 10 mM EGTA, and 10 mM HEPES, adjusted to pH 7.4. The HEK cell bath solution contained 150 mM NaCl, 1 mM CaCl2, 10 mM HEPES, pH 7.4. The resistance of the recording electrode filled with buffer solution was typically 3-5 MΩ and the series resistance was 5-6 MΩ. The cells were held at a constant transmembrane voltage of −60 mV and room temperature (22° C.). […]
structure (smiles),measurement,value
"CCN(CC)c1ccc2c(CO)cc(=O)oc2c1 [DECM, 7-N,N-Diethylamino-4-hydroxymethylcoumarin]","whole-cell current evoked by 100 μM glutamate, presence vs absence of compound",do not inhibit
